According to patent US7879795B2, “Enhancement of tigecycline potency using efflux pump inhibitors” (Mpex Pharmaceuticals, Inc., priority 2004, dated 2011):
Converted amounts (≈) assume the structure as drawn.

Assays:
[1] = test system: Citrobacter freundii 13; test: Antibiotic MIC with fixed concentration of compound 21, Citrobacter freundii 13; type: cell-based; conditions: tigecycline alone
Description: (§1) To further characterize the clinical potential of tigecycline/EPI combinations, the microbiological activity of tigecycline in combination with compound 21 was investigated using clinical isolates of P. aeruginosa and other gram-negative bacteria. In several experiments, described below, the impact of a fixed concentration of compound 21 (2.5 μg/ml) on susceptibility to tigecycline was determined.
(§2) The impact of compound 21 on the activity of tigecycline against representative members of Enterobacteriacaea was also tested.

[2] = test system: Klebsiella pneumonia 73; test: Antibiotic MIC with fixed concentration of compound 21, Klebsiella pneumonia 73; type: cell-based; conditions: tigecycline alone
Description: as §1, §2

[3] = test system: PAM 1626, Four pumps non-functional; test: Tigecycline potentiation checkerboard assay, PAM 1626; type: cell-based, P. aeruginosa; conditions: Pseudomonas aeruginosa, read-out: Tigecycline MIC in the presence of Compound 21
Description: (§3) The ability of compound 21 to increase susceptibility to tigecycline was also assessed. The tigecycline potentiating activity of compound 21 was assessed by the checkerboard assay (Antimicrobial Combinations, Antibiotics in Laboratory Medicine, ed. Victor Lorian, M.D., Fourth edition, 1996, pp 333-338, which is incorporated herein by reference in its entirety) using a broth micro-dilution method performed as recommended by the CSLI (Clinical and Laboratory Standards Institute, formerly NCCLS) guidelines (National Committee for Clinical Laboratory Standards 2003. Methods for Dilution Antimicrobial Susceptibility Tests for Bacteria That Grow Aerobically—Sixth Edition; Approved Standard. NCCLS Document M7-A6, Vol 20 No. 2). In this assay, multiple dilutions of the two drugs, compound 21 and tigecycline, were tested alone and in combination, at concentrations equal to, above and below their respective minimal inhibitory concentrations (MICs). […] The stock solution was further diluted in Mueller Hinton Broth (MHB). Stock solutions were stored at −80° C.
(§4) The checkerboard assay was performed in microtiter plates. Tigecycline was diluted in the x axis, each column containing a single concentration of tigecycline. Compound 21 was diluted in the y axis, each row containing an equal concentration of the EPI. […] The assay was performed in MHB with a final bacterial inoculum of 5×10^5 CFU/ml (from an early-log phase culture). The microtiter plates were incubated for 20 hours at 35° C. and then read using a microtiter plate reader (Molecular Devices) at 650 nm, as well as by visual observation using a microtiter plate-reading mirror.

[4] = test system: laboratory strains of P. aeruginosa; test: Tigecycline susceptibility of laboratory strains of P. aeruginosa over-expressing or lacking efflux pumps; type: cell-based; conditions: compared to the wild-type strain PAM1020
Description: as §3, §4

[5] = test system: PAM 1753, MexEF-OprN over-expressed; test: Tigecycline potentiation checkerboard assay, PAM 1753; type: cell-based, P. aeruginosa; conditions: Pseudomonas aeruginosa, read-out: Tigecycline MIC in the presence of Compound 21
Description: as §3, §4

[6] = test system: PAM 1020, wt; test: Tigecycline potentiation checkerboard assay, PAM 1020; type: cell-based, P. aeruginosa; conditions: Pseudomonas aeruginosa, read-out: Tigecycline MIC in the presence of Compound 21
Description: as §3, §4

[7] = test system: PAM 1032, nalB, MexAB-OprM over-expressed; test: microbe, parasite or virus in culture; type: cell-based, P. aeruginosa
Description: as §3, §4
(§5) P. aeruginosa strain PAM 1032 was grown in Mueller-Hinton Broth (MHB) at 35° C. under constant aeration. After 20 hours, the inoculum was sub-cultured into fresh MHB and allowed to regrow at 35° C., under constant aeration, for 4 hours. The inoculum was adjusted to ca. 4×10^7 CFU/ml by correlation of absorbance at 600 nm with predetermined plate counts. The inoculum was then diluted 2-fold in 14% hog-gastric mucin (Sigma, St. Louis, Mo.) for a final inoculum concentration of 2×10^7 CFU/ml. […] At 0 and 2 hours following infection, tigecycline was administered by the subcutaneous route and compound 21 was administered by the intraperitoneal route.

[8] = test system: P. aeruginosa strain PAM 1032; test: Mouse model of P. aeruginosa sepsis infection (tigecycline 50% effective dose); type: in vivo; conditions: mice, tigecycline SC at 0 and 2 hours; Reed and Meunch
Description: Tigecycline and compound 21 were prepared in sterile 0.9% saline. Seventy Swiss-Webster mice (Harlan laboratories) with body weights ranging from 22 to 25 grams at the start of the study were used. Upon receipt, the animals were housed 5 per cage in a room with a controlled environment and were acclimated to laboratory conditions for at least 24 hours prior to the start of dosing. Animals were provided food and water ad libitum. The health status of the animals was determined during the acclimation period and unhealthy animals were not placed on study. Each animal was identified by marking their tails with indelible ink and each cage was identified by animal, group, and study number.
as §5, with “route. […] The susceptibility of the test strain (P. aeruginosa PAM1032, […] MexAB-OprM) to tigecycline was 4 ug/ml, the susceptibility of the test strain to tigecycline in the presence of 2.5 μg/mL of compound 21 was 0.25 μg/mL.” for “route.”

[9] = test system: Enterobacter aerogenes 19; test: Antibiotic MIC with fixed concentration of compound 21, Enterobacter aerogenes 19; type: cell-based; conditions: tigecycline alone
[10] = test system: 110 clinical isolates of P. aeruginosa; test: Tigecycline susceptibility of P. aeruginosa clinical isolates with fixed concentration of compound 21; type: cell-based; conditions: tigecycline alone; 110 clinical isolates
Description: as §1
Results from an experiment using 110 clinical isolates of P. aeruginosa are presented in FIG. 1, as the distribution of tigecycline MICs with or without the EPI potentiator.

[11] = test system: Enterobacter cloacae 25; test: Antibiotic MIC with fixed concentration of compound 21, Enterobacter cloacae 25; type: cell-based; conditions: tigecycline alone
[12] = test system: PAM 1723, MexAB-OprM over-expressed, ΔMexCD-OprJ ΔMexEF-OprN; test: microbe, parasite or virus in culture; type: cell-based, P. aeruginosa; conditions: Pseudomonas aeruginosa, read-out: Tigecycline MIC in the presence of Compound 21
Description: as §3, §4

[13] = test system: PAM 1323, mexZ, MexXY-OprM over-expressed, MexAB-OprM low level; test: microbe, parasite or virus in culture; type: cell-based, P. aeruginosa; conditions: Pseudomonas aeruginosa, read-out: Tigecycline MIC in the presence of Compound 21
Description: as §3, §4

[14] = test system: PAM 1738, MexCD-OprJ over-expressed, ΔMexAB-OprM ΔMexEF-OprN; test: microbe, parasite or virus in culture; type: cell-based, P. aeruginosa; conditions: Pseudomonas aeruginosa, read-out: Tigecycline MIC in the presence of Compound 21
Description: as §3, §4

[15] = test system: PAM 2466, mexR1, MexAB-OprM and MexXY-OprM over-expressed; test: microbe, parasite or virus in culture; type: cell-based, P. aeruginosa; conditions: Pseudomonas aeruginosa, read-out: Tigecycline MIC in the presence of Compound 21
Description: as §3, §4

[16] = test system: Strain S41, a clinical isolate; test: microbe, parasite or virus in culture; type: cell-based, P. aeruginosa
[17] = test system: Klebsiella pneumonia 79; test: Antibiotic MIC with fixed concentration of compound 21, Klebsiella pneumonia 79; type: cell-based; conditions: tigecycline alone
Description: as §1, §2

[18] = test system: Klebsiella pneumonia; conditions: cited from earlier work

In the case of `CN(C)c1cc(NC(=O)CNC(C)(C)C)c(O)c2c1C[C@H]1C[C@H]3[C@H](N(C)C)C(O)=C(C(N)=O)C(=O)[C@@]3(O)C(O)=C1C2=O` [Tigecycline], the Tig (MIC) [1] is reported as 4 µg/mL, the Tig (MIC) [2] is reported as 2 µg/mL and the MIC [3] is reported as 0.0005 µg/mL. For the same compound, the “increase in susceptibility to tigecycline on deleting all four efflux pumps (PAM1626)” value [4] was 4 fold, the MIC [5] was 0.002 µg/mL and the MIC [6] was 0.002 µg/mL. The “susceptibility of the test strain to tigecycline” value ([7]; PAM1032, tigecycline alone) was 4 µg/mL, the MIC ([7]; Pseudomonas aeruginosa, read-out: Tigecycline MIC in the presence of Compound 21) was 0.004 µg/mL and the “50% effective dose of tigecycline alone” value [8] was “greater than 200 mg/kg”. For the same compound, the Tig (MIC) [9] was 4 µg/mL, the MIC50, Tigecycline [10] was 2 µg/mL and the MIC90, Tigecycline [10] was 8 µg/mL. It also gave a Tig (MIC) [11] of 2 µg/mL, an MIC [12] of 0.004 µg/mL and an MIC [13] of 0.004 µg/mL. The MIC [14] was 0.001 µg/mL, the MIC [15] was 0.008 µg/mL and the MIC ([16]; Pseudomonas aeruginosa, read-out: Tigecycline MIC, alone) was 1 µg/mL (≈ 1.71 µM). The “Mutation Frequency on Tigecycline at 4 μg/ml, alone” value ([16]; strain S41, 4× MIC) was 8.3 × 10^−8, the Tig (MIC) [17] was 4 µg/mL and the “frequency of emergence of efflux-mediated tigecycline resistance” value [18] was ~4×10^−8.
